Data as given in the NIST ThermoML archive (doi:10.1016/j.jct.2008.11.012).

Experiment: xn = mol fraction of the nth substance listed
Settings: 101 kPa, Liquid; for viscosity: Concentric cylinders viscometry; for mass density: Vibrating tube method

NCCNCCN [di(2-aminoethyl)amine] + O
Settings	mass density, 333.15 K [kg/m3]	mass density, 343.15 K [kg/m3]	mass density, 353.15 K [kg/m3]	mass density, 363.15 K [kg/m3]	viscosity, 333.15 K [mPa·s]	viscosity, 343.15 K [mPa·s]	viscosity, 353.15 K [mPa·s]	viscosity, 363.15 K [mPa·s]
x1 = 0.0095	985.5	980	973.8	967.3	0.5792	0.4978	0.4312	0.3693
x1 = 0.0299	986.5	980.8	974.6	967.7	0.8166	0.6873	0.5864	0.4995
x1 = 0.0565	991	984.7	978.1	970.9	1.283	1.044	0.8677	0.7364
x1 = 0.0696	992.4	985.8	978.9	971.7	1.562	1.244	1.017	0.8452
x1 = 0.1043	997.2	990.1	982.6	974.7	2.525	1.919	1.507	1.213
x1 = 0.125	998.2	990.5	982.3	974.2	3.206	2.376	1.824	1.439
x1 = 0.1591	999.9	992.3	982.9	974.2	4.43	3.174	2.373	1.84
x1 = 0.2076	996.3	987.6	978.5	969.5	5.698	3.938	2.852	2.148
x1 = 0.2449	993.1	984.2	975.1	966.1	6.271	4.293	3.086	2.311
x1 = 0.3099	984.1	975.4	966.3	957	6.366	4.372	3.151	2.365
x1 = 0.3438	979.6	970.7	961.7	952.6	6.191	4.277	3.1	2.337
x1 = 0.4112	969.2	960.5	951.7	942.7	5.44	3.846	2.841	2.176
x1 = 0.4974	956.8	949.5	940.8	931.9	4.572	3.308	2.502	1.955
x1 = 0.6111	945.1	936.5	927.8	919.1	3.62	2.721	2.118	1.696
x1 = 0.6988	937.3	929.1	920.4	911.8	3.083	2.366	1.876	1.526
x1 = 0.8073	929.1	920.7	912.2	903.6	2.618	2.067	1.677	1.387
x1 = 0.8954	922.9	914.6	906.1	897.5	2.301	1.833	1.504	1.26
x1 = 1	917	908.9	900.4	891.9	2.109	1.703	1.409	1.19
